Data published in patent publication USRE38332E1, “Selected soluble esters of hydroxyl-containing indolocarbazoles” (Cephalon, Inc., priority 1995, dated 2003).

Columns and labels:
[1] = In vitro metabolism of I-5 esters in human plasma; format: in vitro ADME; details: 5000 ng/mL, 37° C.
Experimental: (§1) Freshly-collected plasma from male Sprague-Dawley rats and presumably-healthy drug-free male humans was pooled and immediately frozen. The plasma was kept frozen at −90° C. and each aliquot was thawed only once for use in incubations. Stock solutions of the indolocarbazole esters were prepared in DMSO and were used to prepare standard curves in plasma that had been boiled to two minutes. Boiled plasma was divided into 500 μL aliquots, mixed with an aliquot of the internal standard, and spiked with the respective stock indolocarbazole ester solutions to prepare the standard curve. Thawed plasma was divided into 500 μL aliquots, placed in screw-cap vials, mixed with internal standard, and spiked with stock solutions of the respective indolocarbazole esters to yield a nominal concentration of 5000 ng/mL.
(§2) Incubations were then performed at 37° C. in a shaking water bath for 0, 0.5, 1, 2, 5, 10, 15, 30, and 60 minutes and quenched by addition of 5 mL methylene chloride. All tubes (standards and experimentals) were extracted for 15 minutes by shaking, and centrifuged. The methylene chloride layer was removed, dried under a stream of nitrogen, and reconstituted in DMSO. Fifty μL of the reconstituted extracts were analyzed by reverse-phase HPLC with detection at 290 nm. The mobile phase and gradient conditions are given below: […]

[2] = Solubility of the esters at 1 mg/ml in water and buffer solutions; details: for solubility in Tris buffer: 10 mM Tris buffer pH 9; for solubility in acetate buffer: 10 mM acetate buffer pH 4; for solubility in phosphate buffer: 10 mM phosphate buffer pH 7; for solubility in water: water (Solution 1)
Experimental: Indolocarbazole esters were dissolved in water, dimethylsulfoxide (DMSO) and the following buffer solutions to determine solubility and to observe conversion to indolocarbazole I-5. Samples were analyzed by HPLC using UV detection at 290 nm.
Solution 2 was a 10 mM acetate buffer at pH 4 which was prepared by weighing 0.68 g of sodium acetate 3H2O into 500 ml of water and adjusting the pH with acetic acid.
Solution 3 was a 10 mM phosphate buffer, pH 7, which was prepared by weighing 0.30 g of monobasic sodium phosphate and 0.36 g of dibasic sodium phosphate into 500 ml of water, stirring until completely dissolved, and adjusting the pH with hydrochloric acid.
Solution 4 was a 10 mM Tris buffer, pH 9, which was prepared by weighing 0.79 g of Tris (tris(hydroxymethyl)aminomethane hydrochloride) into 500 ml of water, stirring until completely dissolved, and adjusting the pH with sodium hydroxide.
Sample solutions were prepared by weighing 0.5-1 mg of the indolocarbazole ester into an amber 1.5 ml autosampler vial, to which the appropriate quantity of one of the buffer solutions was added, in order to achieve a final concentration of 1 mg/ml. The sample solutions were vortexed and sonicated for 10 minutes. Fifty μl aliquots were placed into 1.5 ml amber autosampler vials. The reaction was quenched at a selected time interval by addition of 450 μl DMSO to the vial.

[3] = system: ChAT activity in spinal cord cultures; assay: Effect of indolocarbazole esters on ChAT activity in dissociated spinal cord cultures; format: cell-based, rat
Experimental: The effect of indolocarbazole esters of the invention on ChAT activity was assayed in dissociated spinal cord cultures prepared from fetal rats. ChAT is the enzyme that catalyzes the synthesis of the neurotransmitter acetylcholine, and it is a specific biochemical marker for cholinergic neurons. In the spinal cord, the large majority of cholinergic neurons are motor neurons. Assay of this enzyme may thus be used as an indication of the effects of a factor (or factors) on the survival and/or differentiation of cholinergic neurons and/or regulation of this enzyme. The procedure used for the assay is that described in Example 6 of WO 94/02488. Fourteen esters were tested in the spinal cord ChAT assay to determine their relative efficacy, and the results are summarized in Table 4.

[4] = In vitro metabolism of I-5 esters in rat plasma; format: in vitro ADME; details: 5000 ng/mL, 37° C.
Experimental: as §1, §2

hydrolysis, conversion to indolocarbazole I-5 [1]	solubility in Tris buffer [2]	solubility in acetate buffer [2]	solubility in phosphate buffer [2]	solubility in water [2]	SMILES	Spinal Cord ChAT Activity (% of Control) 500 nM [3]	Spinal Cord ChAT Activity (% of Control) 1000 nM [3]	hydrolysis of the ester linkage, liberation of indolocarbazole I-5 [4]	increase of ChAT activity over control ([3]; 10 μM)	maximum rates of hydrolysis [4]
hydrolyzed rapidly					COC1(COC(=O)C(N)CCCNC(=N)N)CC2OC1(C)n1c3ccccc3c3c4c(c5c6ccccc6n2c5c31)C(=O)NC4.Cl.Cl (stereo not shown) [Example 10, (I-5)-Argininate Dihydrochloride]	128 % of Control	170 % of Control	complete prior to the first sampling period		
	not completely soluble	completely soluble	not completely soluble	completely soluble	COC1(COC(=O)CN(C)C)CC2OC1(C)n1c3ccccc3c3c4c(c5c6ccccc6n2c5c31)C(=O)NC4.Cl (stereo not shown) [Example 7, (I-5)-N,N-Dimethylglycinate Hydrochloride]	132 % of Control	151 % of Control			
	not completely soluble	not completely soluble	not completely soluble	not completely soluble	COC1(COC(=O)c2cccnc2)CC2OC1(C)n1c3ccccc3c3c4c(c5c6ccccc6n2c5c31)C(=O)NC4.Cl (stereo not shown) [Example 5, (I-5)-Pyridine-3-carboxylate Hydrochloride]	137 % of Control	139 % of Control		*This compound increases ChAT activity 169% over control at 10 μM	
	not completely soluble	completely soluble	not completely soluble	completely soluble	COC1(COC(=O)C(N)Cc2cnc[nH]2)CC2OC1(C)n1c3ccccc3c3c4c(c5c6ccccc6n2c5c31)C(=O)NC4.Cl.Cl (stereo not shown) [Example 9, (I-5) Histidinate Dihydrochloride]	158 % of Control	143 % of Control			
not detectable	not completely soluble	completely soluble	not completely soluble	completely soluble	COC1(COC(=O)C(C)N)CC2OC1(C)n1c3ccccc3c3c4c(c5c6ccccc6n2c5c31)C(=O)NC4.Cl (stereo not shown) [Example 3, (I-5)-Alaninate Hydrochloride]	151 % of Control	132 % of Control			more extensively hydrolyzed
	not completely soluble	completely soluble	not completely soluble	completely soluble	COC1(COC(=O)C(C)(C)N)CC2OC1(C)n1c3ccccc3c3c4c(c5c6ccccc6n2c5c31)C(=O)NC4.Cl (stereo not drawn) [Example 12, (I-5)-α-Aminoisobutyrate Hydrochloride]	155 % of Control	150 % of Control			

The remaining lines, values behind:

SMILES	hydrolysis, conversion to indolocarbazole I-5 [1]	solubility in Tris buffer [2]	solubility in acetate buffer [2]	solubility in phosphate buffer [2]	solubility in water [2]	Spinal Cord ChAT Activity (% of Control) 500 nM [3]	Spinal Cord ChAT Activity (% of Control) 1000 nM [3]	hydrolysis of the ester linkage, liberation of indolocarbazole I-5 [4]	increase of ChAT activity over control ([3]; 10 μM)	maximum rates of hydrolysis [4]
COC1(COC(=O)C(N)CCCCN)CC2OC1(C)n1c3ccccc3c3c4c(c5c6ccccc6n2c5c31)C(=O)NC4.Cl.Cl (stereo not shown) [Example 1, (I-5)-Lysinate Dihydrochloride]	hydrolyzed rapidly	completely soluble	completely soluble	completely soluble	completely soluble	150 % of Control	153 % of Control			
COC1(COC(=O)c2ccc[n+](C)c2)CC2OC1(C)n1c3ccccc3c3c4c(c5c6ccccc6n2c5c31)C(=O)NC4.[I-] (stereo not shown) [Example 6, (I-5)-Pyridine-3-carboxylate Methiodide]		not completely soluble	not completely soluble	not completely soluble	not completely soluble	149 % of Control	150 % of Control			
COC1(COC(=O)CCC(=O)O)CC2OC1(C)n1c3ccccc3c3c4c(c5c6ccccc6n2c5c31)C(=O)NC4 (stereo not shown) [Example 4, (I-5)-Hydrogen Succinate]		not completely soluble	not completely soluble	not completely soluble	not completely soluble	150 % of Control	154 % of Control			
COC1(COC(=O)CN)CC2OC1(C)n1c3ccccc3c3c4c(c5c6ccccc6n2c5c31)C(=O)NC4.Cl (stereo not shown) [Example 2, (I-5)-Glycinate Hydrochloride]						157 % of Control	151 % of Control			more extensively hydrolyzed
COC1(COC(=O)C(N)CCC(=O)O)CC2OC1(C)n1c3ccccc3c3c4c(c5c6ccccc6n2c5c31)C(=O)NC4.Cl (stereo not shown) [Example 13, (I-5)-Glutamate Hydrochloride]						168 % of Control	142 % of Control			
